Reference: ChEMBL document CHEMBL3045364, “Synthesis, structure, and estrogenic activity of 2- and 3-substituted 2,3-dihydro-4H-1-benzopyran-4-ones” (2013)
The source made the active and inactive calls. The calls are words filed in the database; no cut-off is given here.

What was measured:
MVLN [1] = assay: Estrogenic activity in Homo sapiens (human) MVLN cells assessed as induction of ERE-dependent transcription at 10 uM after 24 hr by luciferase reporter gene assay; assay type: functional, cell-based
[2] = target: T1, Estrogen receptor (Homo sapiens) (UniProt P03372); assay: Displacement of [3H]E2 from Homo sapiens (human) recombinant ER-alpha by HAP binding assay
T1 sequence (whole entry): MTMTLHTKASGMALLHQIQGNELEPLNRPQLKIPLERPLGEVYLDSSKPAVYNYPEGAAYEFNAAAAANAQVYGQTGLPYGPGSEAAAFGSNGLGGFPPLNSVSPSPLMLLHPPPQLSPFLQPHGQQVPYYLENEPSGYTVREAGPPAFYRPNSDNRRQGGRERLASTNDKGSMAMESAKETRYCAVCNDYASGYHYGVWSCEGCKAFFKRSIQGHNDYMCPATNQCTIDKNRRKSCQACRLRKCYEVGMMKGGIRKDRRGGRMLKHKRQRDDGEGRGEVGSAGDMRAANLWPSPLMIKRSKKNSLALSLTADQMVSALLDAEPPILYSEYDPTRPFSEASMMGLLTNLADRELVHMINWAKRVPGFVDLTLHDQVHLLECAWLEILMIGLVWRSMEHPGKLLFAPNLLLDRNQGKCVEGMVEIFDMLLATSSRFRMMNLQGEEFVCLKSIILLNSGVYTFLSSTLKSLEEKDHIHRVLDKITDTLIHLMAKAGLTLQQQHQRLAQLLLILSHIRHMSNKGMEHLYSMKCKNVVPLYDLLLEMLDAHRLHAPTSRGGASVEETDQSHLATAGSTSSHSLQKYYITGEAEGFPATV

MVLN [3] = assay: Estrogenic activity in Homo sapiens (human) MVLN cells assessed as induction of ERE-dependent transcription at 10 uM after 24 hr by luciferase reporter gene assay in presence of 0.1 uM antiestrogen, fulvestrant; assay type: functional, cell-based
MVLN [4] = assay: Estrogenic activity in Homo sapiens (human) MVLN cells assessed as induction of ERE-dependent transcription at 1 uM after 24 hr by luciferase reporter gene assay; assay type: functional

| SMILES | Activity (MVLN [1]) | inhibition [2] | Activity (MVLN [3]) | Activity (MVLN [4]) |
| --- | --- | --- | --- | --- |
| O=C1/C(=C/c2ccc(O)cc2)COc2ccccc21 | Active | inactive | inactive | 236% |
| COc1cc(OC)c(/C=C2\COc3ccccc3C2=O)c(OC)c1 |  | inactive |  | 134% |
| CN(C)c1ccc(/C=C2\COc3ccccc3C2=O)cc1 |  | inactive |  | 145% |
| COc1cccc(/C=C2\COc3ccccc3C2=O)c1 | Active | inactive | inactive | 243% |
| COc1ccc2c(c1)OC1(CCC(c3ccccc3)CC1)CC2=O (stereo not drawn) |  | inactive |  |  |
| COc1ccc2c(c1)OC1(CCC(C(C)(C)C)CC1)CC2=O (stereo not drawn) |  | inactive |  |  |
| Cc1ccc(/C=C2\COc3ccccc3C2=O)cc1 |  | inactive |  |  |
| O=C1CC2(CCCCC2)Oc2cc(O)ccc21 | Active | inactive | inactive | 279% |
| COc1ccc2c(c1)OC1(CCCCC1)CC2=O |  | inactive |  | inactive |
| O=C1/C(=C/c2ccccc2)COc2ccccc21 |  | inactive |  | inactive |
